In patent US20100285038A1, “Factor Involved in Metastasis and Uses Thereof” (priority 2002, published 2010):
d = 2'-deoxy (DNA); m = 2'-O-methyl

Assays:
PRF1 protein = experiment: Western blot analysis of PRF1 protein expression in PC-3 cells; assay type: cell-based, human; details: for expressed PRF1 protein: lysates of PC-3 cells treated with PRF1 specific GeneBlocs or mismatches, polyclonal antibody (FIG. 8A); for expression of PRF1 protein: PC-3 cells under hypoxic conditions, 72 h GeneBloc treatment, CoCl2 treatment for 24 h (FIG. 10B)
Experimental: A polyclonal antibody was generated against PRF1 using standard techniques. The polyclonal antibody thus obtained was tested for its specificity for PRF1. For that purpose, cell lysates from PC-3 cells treated with PRF1 specific antisense molecules, more particularly gene blocks, or mismatches thereof and cells transfected with expression plasmides for recombinant HA-tagged PRF1 were prepared. The lysates were analysed by Western blot analysis using the polyclonal antibody and the results are depicted in FIG. 8 A.
To investigate whether PI 3-kinase activity has an impact on PRF1 protein expression, PC-3 cells were treated either with LY294002 or with DMSO as control. Analysis was performed by Western Blot analysis using the polyclonal antibody as detection means for PRF1 protein. Apart from PRF1 protein, also expression of Akt and phosphorylated Akt (P*Akt) was monitored using respective specific antibodies. Additionally, the expression of p110α and p85 was monitored.
(§1) To investigate whether the expression of PRF1 at the protein level would also be dependent on Akt (PKB) activity and HIF1α activity PC-3 cells were treated with Akt specific antisense molecules. More particularly, two antisense molecules, designated Akt1-GB and Akt2-molecule were used with the readout being the same as discussed in connection with FIG. 9, whereby, additionally, the HIF1α protein expression was monitored using a commercially available protein G-purified polyclonal antibody (R&DSystems, Lot Number: IUGO13071).
(§2) The same experiment using the same markers for monitoring except Akt and P*-Akt was carried out with cells grown under hypoxic conditions which was realized by treating the cells with CoCl2. Two different forms of antisense molecules, namely HIF1α-GB66 and HIF1α-GB67 were used and respective mismatches used as controls.
(§3) A lane of the Blot represents the cell lysate of the cells shown in the corresponding photograph. As a read-out, p110 alpha and p85 are shown as loading control and the component of the PI-3K pathway investigated, i.e. AKT, monitored as P*AKT, HIF1 alpha and PRF1.

PC-3 cells [1] = experiment: In vitro growth on Matrigel matrix; assay type: cell-based, human; details: PC-3 cells transfected with GeneBloc; versus corresponding mismatched oligonucleotides
Experimental: PC3 cells were treated with 10 μM LY294002 or DMSO when seeded on Matrigel. If cells were transfected previous to seeding cells were transfected with GeneBloc and trypsinized 48 h post transfection. The cells were washed in medium and seeded into duplicate 24-wells (100.000 cells per well) pre-coated with 250 μl matrigel basement membrane matrix (Becton Dickinson). After incubation for 24 to 72 h photographs were taken at 5× magnification with an Axiocam camera attached to an Axiovert 5100 microscope (Zeiss).
A more confluent growth of the cells is taken as an indication that their metastasis and migration behavior is increased which allows the cells to spread over the three-dimensional structure provided by the matrigel. The result of this example is depicted in FIG. 5.
PC3 cells were transfected and seeded on matrigel as described and growth was monitored. mRNA was isolated from an aliquot of the cells seeded on matrigel and analysed using Taqman assay (left panel). PRF1 (NM_019058) specific mRNA was standardized to internal p110α mRNA levels. A PTEN specific GeneBloc is used as a negative control in the PTEN^−/− PC-3 cells and a p110β specific GeneBloc is used as a positive control for growth in extracellular matrix. […]

[2] = test system: PRF1 (NM—019058) specific mRNA; experiment: PRF1 mRNA knock-down by real time RT-PCR (Taqman) in transfected PC-3 cells; assay type: cell-based, human; details: PC-3 cells seeded on matrigel; standardized to internal p110α mRNA levels; DCt method
Experimental: Transfections were carried out in 96 well or 10-cm plates (at 30% to 50% confluency) by using various cationic lipids such as Oligofectamine, Lipofectamine (Life Technologies), NC388 (Ribozyme Pharmaceuticals, Inc., Boulder, Colo.), or FuGene 6 (Roche) according to the manufacturer's instructions. GeneBlocs were transfected by adding pre-formed 5× concentrated complex of GeneBloc and lipid in serum-free medium to cells in complete medium. The total transfection volume was 100 μl for cells plated in 96 wells and 10 ml for cells in 10 cm plates. The final lipid concentration was 0.8 to 1.2 μg/ml depending on cell density; the GeneBloc concentration is indicated in each experiment.
The RNA of cells transfected in 96-wells was isolated and purified using the Invisorb RNA HTS 96 kit (InVitek GmbH, Berlin). Inhibition of PRF1 mRNA expression was detected by real time RT-PCR (Taqman) analysis using 300 nM PRF1 5′ primer, 300 nM PRF1 3′ primer and 100 nM of the PRF1 Taqman probe Fam-Tamra labelled. […]
PC3 cells were transfected and seeded on matrigel as described and growth was monitored. mRNA was isolated from an aliquot of the cells seeded on matrigel and analysed using Taqman assay (left panel). […]

[3] = test system: PI 3-kinase (p110α and p85); experiment: Western blot analysis of PI 3-kinase (p110α and p85) expression in PC-3 cells; assay type: cell-based, human; details: lysates of PC-3 cells treated with PRF1 specific GeneBloc (FIG. 8A)
HIF1α = experiment: Western blot analysis of HIF1α protein expression in PC-3 cells; assay type: cell-based, human; details: PC-3 cells under hypoxic conditions; 72 h GeneBloc treatment, CoCl2 treatment for 24 h (FIG. 10B)
Experimental: as §1, §2, §3

PC-3 cells [4] = experiment: Prostatic tumor growth and lymph node metastasis of PC-3 cells stably transfected with siRNA expression plasmids; assay type: in vivo, Shoe:NMRI-nu/nu mice; details: 56 days post inoculation, stably transfected PC-3 cells
Experimental: Male Shoe:NMRI-nu/nu mice (Tierzucht Schönwalde GmbH) maintained under SPF conditions (Laminar air flow equipment, Scantainer, Scanbur) served as recipients for the human prostate carcinoma cells. The animals, aged 6-8 weeks and weighing 28-30 g, were inoculated 2×10^6/0.03 ml tumor cells into both, the left dorsolateral lobe of the prostatic gland (iprost; Orthotopic) or the tip of the Lobus lateralis sinister of the liver (ihep; Ectopic). For this purpose, the mice received a total body anaesthesia using a mixture of Ketanest (Parke-Davis GmbH) and Rompun (Bayer Vital GmbH) 80:1 with dosages of 100 mg/kg and 5 mg/kg, respectively. […]
All sacrificed animals were completely dissected and photographically documented. Tumors (Prostatic gland) and metastases (Caudal, lumbar, renal lymph node metastases) were measured in two dimensions by means of a pair of callipers. The volume was calculated according to V (mm^3)=ab^2/2 with b<a. […]
The various siRNA constructs such as the ones directed to p 110 alpha, p110 beta and PTEN as well as the PRF1 specific siRNA were cloned in the same vector construct. […] Resistent pools of cells were expanded and harvested, cell number determined and prepared for animal experiment as described. […]

## Akt2 GeneBloc: Akt specific antisense molecule (GeneBloc), SEQ ID NO: 38 (antisense UCCUUGTACCCAATGAAGGAG; sugars from the 5' end m6 d9 m6, backbone and methylation of C not given here; DNA gap phosphorothioate-linked, flank linkages not clearly stated, further chemistry not fully specified)
PRF1 protein; PC-3 cells, 72 h after treatment with Akt specific antisense molecules (FIG. 10A)
  PRF1 protein level: reduction

## GeneBloc 70043: third generation antisense oligonucleotide directed to PRF1 mRNA, SEQ ID NO. 7 (antisense CCCAAAAGTTCAGTCGUCUCU; sugars from the 5' end m6 d9 m6, backbone and methylation of C not given here; DNA gap phosphorothioate-linked, flank linkages not clearly stated, further chemistry not fully specified)
PC-3 cells [1]
  growth on matrigel: Specific growth inhibition
PRF1 protein
  expressed PRF1 protein: clear reduction
[2]
  knockdown of the mRNA of PRF1: significant knockdown
[3]
  PI 3-kinase expression (p110α and p85 specific antibodies): still being extensively expressed

## GeneBloc 70044: third generation antisense oligonucleotide directed to PRF1 mRNA, SEQ ID NO. 8 (antisense GCUCCUGCCTCTAGTCUCCAC; sugars from the 5' end m6 d9 m6, backbone and methylation of C not given here; DNA gap phosphorothioate-linked, flank linkages not clearly stated, further chemistry not fully specified)
PC-3 cells [1]
  growth on matrigel: Specific growth inhibition
PRF1 protein
  expressed PRF1 protein: significant decrease
[2]
  knockdown of the mRNA of PRF1: significant knockdown

## GeneBloc 70168: mismatched oligonucleotide (4 mismatches) corresponding to 70043, alias FLJ: 954L21, SEQ ID NO. 12 (CCGAAAAGAACAGTGCUCUCU; sugars from the 5' end m6 d9 m6, backbone and methylation of C not given here; DNA gap phosphorothioate-linked, flank linkages not clearly stated, further chemistry not fully specified)
PRF1 protein
  expressed PRF1 protein: significantly expressed

## HIF1α-GB66: GeneBloc antisense molecule specific for HIF1α, SEQ ID NO: 32 (antisense GGUAGUGGTGGCATTAGCAGU; sugars from the 5' end m6 d9 m6, backbone and methylation of C not given here; DNA gap phosphorothioate-linked, flank linkages not clearly stated, further chemistry not fully specified)
HIF1α
  expression of HIF1α at the protein level: significantly reduced
PRF1 protein
  expression of PRF1 protein: reduced

## HIF1α-GB67: GeneBloc antisense molecule specific for HIF1α, SEQ ID NO: 34 (antisense UGACUCCTTTTCCTGCUCUGU; sugars from the 5' end m6 d9 m6, backbone and methylation of C not given here; DNA gap phosphorothioate-linked, flank linkages not clearly stated, further chemistry not fully specified)
HIF1α
  expression of HIF1α at the protein level: significantly reduced
PRF1 protein
  expression of PRF1 protein: reduced

B1: PRF1 specific siRNA: siRNA generated by U6+2 promoter driven expression from plasmid, directed to the mRNA of PRF1; expression cassette SEQ ID NO. 17 (nucleic acid)
DNA: GAATTCCTATTTCCCATGATTCCTTCATATTTGCATATTTTTAAAATGGACTATCATATGCTTACCGTAACTTGAAAGTATTTCGATTTCTTGGCTTTATATATCTTGGGAAAGGACGAAACACCGGGAGACTAGAGGCAGGAGCAAAAAAAAAAACTCCTGCCTCTAGTCTCCACTTTTTCTCGAG
notes: siRNA generated by U6+2 promoter driven expression from plasmid, directed to the mRNA of PRF1; 17
PC-3 cells [4]; EGFP expression plasmid as control (FIG. 6C)
  prostatic tumor growth (volume of primary prostate tumors): significantly inhibited
PC-3 cells [4]; EGFP expression plasmid as control (FIG. 6D)
  total lymph node metastasis (volume): less prominent
